According to patent publication US4396607A, “Muramyl peptide derivatives and pharmaceutical compositions” (priority 1978, dated 1983):

Experiments:
[1] = Toxicity (lethal dose 50) by parenteral administration in the adrenalectomised mouse; format: in vivo, mice
Protocol: The toxicity of the products according to the invention was investigated by parenteral administration in mice. It was observed that the toxic doses were of an order of magnitude very much higher than that of the doses at which these products manifest their activity. Thus the lethal dose 50 of the products according to the invention tested was higher than 5 mg/kg of animal in the adrenalectomised mouse, whose sensitivity to endotoxins is well-known.

[2] = tested on: bovine serum albumin (BSA); test: Adjuvant character in the aqueous phase (antibody titer by passive hemagglutination); format: in vivo, Swiss mice; conditions: mice, 0.5 mg BSA with 0.1 mg tested substance SC in isotonic saline, booster day 30, titer at the 36th day
Protocol: (§1) Groups of 8 Swiss mice aged two months received, by sub-cutaneous injection (SC), 0.5 mg of antigen constituted by bovine serum albumin (BSA) with 0.1 mg or without the tested substance in an isotonic saline solution. This high dose of antigen, because it is situated at the limit of the paralyzing dose with respect to the immunitary response, results, for this reason, in a weak or zero response to the antigen only in the controls: It constitutes therefore a severe criterien to establish the activity of an adjuvant substance. Thirty days later, the mice received, by the same administrative route, a booster containing 0.1 mg of the same antigen.
(§2) The antibody level was determined, six days after the booster, by passive hemagglutination using sheep's red blood corpuscles treated with formalin and covered with the antigen studied according to the method described by A. A. HIRATA and M. W. BRANDISS (J. Immunol., 100, 641-648, 1968).
The antibody titer, represented by the maximum serum dilution agglutinating a given amount of sheep corpuscles, reaches a maximum at the 36th day and is established in the following manner: […]

Ovalbumin [3] = test: Adjuvant character in emulsion (delayed hypersensitivity and antibodies); format: in vivo, Hartley guinea pigs; conditions: guinea pigs, 50 μg in AlF emulsion with 1 mg ovalbumin
Protocol: The tests were carried out on batches of 6 male Hartley guinea pigs of 350 g. The administration was done by intradermal injection into the plantar pad of each of the rear paws. Ovalbumin (constituting the antigen) in the amount of 1 mg is prepared in 0.1 ml of an emulsion of saline isotonic solution, in any oily phase constituted either by the Freund imcomplete adjuvant (FIA), or by the complete adjuvant (FCA) formed by the FIA to which is added 0.1 mg of whole Mycobacterium smegmatis cells. The compound according to the invention was administered in the amount of 0.05 mg added in the emulsion containing the FIA.
Eighteen days after this immunization, possible delayed hypersensitivity reactions to the antigen were sought by injecting by the intradermal route 0.01 mg of ovalbumin in the side of the animals, and 48 hours later, the reaction of the point of injection was observed. The diameter in millimeters of the reaction thus caused was measured.
Twenty-one days after the injection, the animals were bled. […]

Klebsiella pneumoniae = test: Anti-infectious activity with respect to Klebsiella; format: in vivo; conditions: mice, i.v. treatment 24h before 2 × 10^4 bacteria i.m.
Protocol: The survival of groups of inoculated mice under the above conditions and treated by means of the products according to the invention was followed.
The infecting dose was 2.10^4 Klebsiella; it was administered by the intramuscular route.
The administration of the tested product was carried out by the intravenous route in 0.2 ml of apyrogenic physiological solution, the controls receiving the solution alone. It was carried out 24 hours before the inoculation.
The percentage protection indicated is a difference of the percentages of survivors of the treated group with respect to the control group.

[4] = Liposome forms: toxicity in the adrenalectomized mouse; format: in vivo; conditions: groups of six mice, 100 μg
Protocol: Pharmacological tests similar to the preceding ones were reproduced with MDP, MDP-L-Ala-eicosyl-ester and MDP-L-Ala-glyceryl-mycolate comparing the effects of administration in liposome form with those obtained for products in solution and with liposomes without muramyl-peptide.
The liposomes were prepared in the manner described above.
The products, the doses administered and their effect on the mortality of groups of six mice are indicated below.

BSA = test: Liposome forms: adjuvant character in mice, BSA as antigen; format: in vivo; conditions: 10 μg
Protocol: as §1, §2
The series of tests was carried out on mice under the same conditions as indicated in (3)(a), using BSA as antigen.

ovalbumin [5] = test: Liposome forms: adjuvant character in Wistar rats, ovalbumin; format: in vivo; conditions: ovalbumin 0.5 mg s.c., 200 μg
Protocol: The antigen was ovalbumin injected by the subcutaneous route in male Wistar rats in a volume of 0.5 ml at the dose of 0.5 mg. The adjuvant preparations were injected simultaneously, at the dose indicated. At day 20, the animals received a booster of 0.5 mg of antigen alone by the same route. The serums were drawn and tested under the same conditions as in the mouse with the appropriate antigen.

ovalbumin [6] = test: Liposome forms: adjuvant character in guinea pigs, ovalbumin in aqueous solution; format: in vivo, Hartley male guinea pigs; conditions: ovalbumin 1 mg in foot pad, dose not given
Protocol: The antigen was ovalbumin injected in aqueous solution in the foot pad of Hartley male guinea pigs at a volume of 0.1 ml in each rear paw, at the dose of 1 mg per guinea pig. The adjuvant preparations were injected simultaneously at the indicated doses. After three weeks, the animals received by the dermal route, in a volume of 0.1 ml, 0.025 mg of antigen. The diameter of the cutaneous reactions was measured after 48 hours. The animals were bled and the titers measured.

Klebsiella = test: Liposome forms: anti-Klebsiella activity (intravenous infection); format: in vivo; conditions: mice, i.v. treatment at D - 1, 1.5.10^3 Klebsiella i.v.
Protocol: Under the previously described conditions, with the exception of the infection produced by the intravenous injection of 1.5.10^3 Klebsiella, the tests are renewed to determine the anti-infectious action. The administrations in the form of solution and of liposome were prepared.

Listeria monocytogenes = test: Liposome forms: anti-Listeria activity; format: in vivo; conditions: mice, 1.10^3 Listeria i.v.
Protocol: The tests were carried out under the conditions of (5), using a dose of Listeria monocytogen, known to cause typically a cellular type infection.
The treatment of the mice and the inoculation were carried out by the intravenous route. The products were injected in the liposome form at the indicated doses. The controls only received isotonic solution.
The dose of Listeria administered was, in all the tests, 1.10^3 cells.
The tests whose results are given below were carried out by varying the interval of time separating the treatment of inoculation from the Listeria monocytogenes (either 1, either 4, or 8 days). The number of surviving mice at the 5th and at the 10th day following inoculation was followed, and the percentage protection determined as for the preceding tests.

[7] = i.v. treatment at D - 1, dose 100 μg
[8] = i.v. treatment at D - 4, dose 100 μg
[9] = i.v. treatment at D - 8, dose 100 μg

## N-acetyl-muramyl-L-alanyl-D-isoglutaminyl-L-alanylglyceryl-mycolate [MDP--L--Ala--glyceryl--mycolate]
[1]
  lethal dose 50: higher than 5 mg/kg
[2]
  Log2 hemagglutinating titer: 7.47 ± 1.17
Ovalbumin [3]; serum day 21
  Log2 of the hemagglutinating titer: 12.77 ± 0.83
Ovalbumin [3]; skin test day 18, read 48 hours later
  HSR (diameter of the delayed hypersensitivity reaction): 21± 3 millimeters
Klebsiella pneumoniae; dose per mouse 10
  % of protection: 33%
  Number of survivors at day 3: 5
  Number of survivors at day 5: 4
  Number of survivors at day 8: 4
Klebsiella pneumoniae; dose per mouse 100
  % of protection: 79%
  Number of survivors at day 3: 23
  Number of survivors at day 5: 23
  Number of survivors at day 8: 23
[4]
  Number of dead mice: 0/6
BSA
  Log2 of the hemagglutinating titer: 2.07 ± 1.13
Ovalbumin [5]
  Log2 of the hemagglutinating titer: 7.64 ± 1.90
Ovalbumin [6]
  HSR (diameter of the cutaneous reactions): 0
  Log2 of the hemagglutinating titer: 8.64 ± 1.83
Klebsiella; 1 μg
  % of protection: 0%
  Number of survivors at D + 3: 2
  Number of survivors at D + 5: 2
  Number of survivors at D + 8: 2
Klebsiella; 10 μg
  % of protection: 25%
  Number of survivors at D + 3: 9
  Number of survivors at D + 5: 8
  Number of survivors at D + 8: 8
Klebsiella; 100 μg
  % of protection: 63%
  Number of survivors at D + 3: 8
  Number of survivors at D + 5: 7
  Number of survivors at D + 8: 7
Listeria monocytogenes; [7]
  % of protection: 0%
  Number of survivors D + 5: 3
  Number of survivors D + 10: 2
Listeria monocytogenes; [8]
  % of protection: 0%
  Number of survivors D + 5: 1
  Number of survivors D + 10: 0
Listeria monocytogenes; [9]
  % of protection: 0%
  Number of survivors D + 5: 1
  Number of survivors D + 10: 0
